The values below come from US5741487A, “Mutanase-containing oral compositions” (priority 1996, dated 1998).

Assay type in all cases: biochemical
Assay [1] deals with Mutanase B (RM4 enzyme) from Bacillus sp. RM4 (FERM P-14837). As to the method: (§1) To 100 μl of a 0.1M acetic acid buffer containing 3% mutan (pH 5) was added 100 μl of the mutanase solution. The mixture was incubated at 35° C. for 10 minutes with shaking at 100 strokes/min. Reaction was terminated by adding 0.4 ml of a 4,6-dinitrosalicylic acid (DNS) solution. The reaction mixture was centrifuged and 0.5 ml of the supernatant was transferred into a test tube. The tube was capped with a glass ball and kept in boiling water for 10 minutes. The tube was cooled with water for 5 minutes. Then 4 ml of distilled water was added and optical absorbance measured at 530 nm. A titer was determined using glucose as standard. The amount of enzyme which releases 1 μg of reducing sugar per minute is defined as one unit. It is noted that the enzymatic activity referred to below in conjunction with any of physicochemical properties is measured by this method.
(§2) Mutanase according to the invention was added to a 50 mM acetic acid buffer (pH 5) in an amount of 50 units/ml. Various inhibitors were individually added thereto in a final concentration of 1 mM. The solution was incubated at 35° C. for 30 minutes. The relative activity is expressed based on the assumption that the enzymatic activity of an inhibitor-free sample is 100%.

In assay [2] the test system is Mutanase C (M7 enzyme) from Bacillus sp. M7 (FERM P-14835). As to the method:
as §1, §2

The test system of assay [3] is Mutanase A (RM1 enzyme) from Bacillus sp. RM1 (FERM P-14836). As for the experimental part:
as §1, §2

Setting [4] is: inhibitor final concentration 1 mM, 50 mM acetic acid buffer pH 5, 35° C., 30 minutes, inhibitor-free sample = 100%.
The mark [5] stands for this setting: mutan substrate, 1 mM inhibitor.

Entries after “also recorded” stand apart in the source; their conditions may differ. Where two headings read alike, the source gives them in different places.

As for `O=C(O)CN(CCN(CC(=O)O)CC(=O)O)CC(=O)O` [2Na-EDTA], the “Relative activity (%) Mutanase B” value in assay [1] (pH 5) is listed as 99%. Besides, in assay [2] (pH 5), the “Relative activity (%) Mutanase C” value is 79%. Moreover, the “Relative activity (%) Mutanase A” value in assay [3] (pH 5) was 93%.

`O=C(O)CI` [Iodoacetic acid]: the “Relative activity (%) Mutanase B” value in assay [1] (pH 5) turned out to be 99%. The “Relative activity (%) Mutanase C” value in assay [2] (pH 5) was determined as 87%. Further, in assay [3] (pH 5), the “Relative activity (%) Mutanase A” value stood at 100%.

Turning to `CCN1C(=O)C=CC1=O` [N-ethylmaleimide], in assay [1] (setting [4]), the “Relative activity (%) Mutanase B” value worked out at 98%. The “Relative activity (%) Mutanase C” value in assay [2] (setting [4]) came out at 94%. Further, the “Relative activity (%) Mutanase A” value in assay [3] (setting [4]) is 100%.

Regarding `O=C(O)c1cc[c]([Hg][Cl])cc1` [PCMB, p-chloromercurybenzoic acid], the “Relative activity (%) Mutanase B” value in assay [1] (setting [4]) is recorded as 14%. In addition, in assay [1] (setting [5]), the “effect of inhibitors on mutanase B (in words)” value was “shows inhibitory effect; also recorded: strongly inhibits”. For the same molecule, the “Relative activity (%) Mutanase C” value in assay [2] (setting [4]) is given as 11%. For the same molecule, in assay [2] (setting [5]), the “effect of inhibitors on mutanase C (in words)” value was “shows inhibitory effect; also recorded: strongly inhibits”. In addition, the “Relative activity (%) Mutanase A” value in assay [3] (setting [4]) worked out at 6%. In addition, the “effect of inhibitors on mutanase A (in words)” value in assay [3] (setting [5]) is “shows inhibitory effect; also recorded: strongly inhibits”.
